Assay results taken from patent US9580411B2, “Substituted sulfonamide compounds” (Hoffmann-La Roche Inc., priority 2012, dated 2017).

molecular target: hTRPA1 (Homo sapiens (Human), UniProt O75762); experiment: Dose response calcium flux assay (FLIPR), ChanTest hTRPA1-CHO stably transfected cell line; assay type: cell-based; conditions: CHO-K1 Tet-On human TRPA1 cells, cinnamaldehyde agonist (final 100 uM)
Method: IC50 Determinations of Exemplified Compounds Dose Response Assay: Chan Test hTRPA1-CHO Stably Transfected Cell Line
CHO-K1 Tet-On_HOMSA_TRPA1_Clone_20
Chinese Hamster Ovary cells, inducible expression
• Ham's F-12 with 10% tetracycline-free FBS • 1× penicillin-streptomycin • 1× glutamax • 0.01 mg/ml Blasticidin • 0.40 mg/ml Zeocin • The cell line doubling rate was ˜15 hours. […] Experiments were run at 24 hours post induction. Plating Conditions CHOK1/TRPA1 Cells: • Harvested cells with 0.025% trypsin/EDTA. • Resuspended cells in growth media without selection antibiotics. • Measured cell density and diluted to 2.4×10^5 cells/ml in media containing 1 ug/ml Doxycycline Plate 25 ul/well into 384 well black/clear tissue culture-treated plates. • Incubated overnight at 37° C. Calcium Flux Assay: Day of Assay: Reagents: • Replacement Buffer: Hank's Balanced Salt Solution, 20 mM HEPES along with 0.005% BSA and 2× Probenecid • Dye Loading Buffer: Cal-3 NW Calcium dye was prepared by dissolving the contents of one vial with […] Hank's Balanced Salt Solution containing 20 mM HEPES. • Control compounds for CHOK1/TRPA1 cells: AP-18, stock 10 mM, prepare 3.5× compound dilution in a Compound Buffer (HBSS/20 mM HEPES/0.005% BSA)—final concentration 10 uM. • Preparation of Cinnamaldehyde (agonist addition): FW=132.16 • Specific gravity=1.046 gm/cc • 1.32 gm/1.046 gm/cc=1.26 ml of stock • Add 1.74 ml DMSO=3.3 M stock • Working solution 4.5× (final 100 uM in Compound Buffer: HBSS/20 mM HEPES/0.005% BSA) • Compounds dilutions were prepared from 5 or 10 mM stock (100% DMSO): • Adjustments of volumes and concentrations were made at time of titration to reflect desired final assay concentrations. • Compounds were tested at either 20 μM three folds dilution 11 steps out or 30 μM two folds dilution 11 steps out. • 3 μl of diluted compound were transferred into Weidmann 384-well plate in duplicates side-by-side. • Compound plates were resuspended with 100 ul of HBSS/20 mM HEPES/0.005% BSA buffer (Compound Buffer): • column 1A-H: buffer/DMSO (bk) • column 2A-H: AP-18 (control antagonist for CHOK1 TRPA1 cells) • column 1I-P: ATP (control for CHOK1 teton cells) • column 2 I-P: 2APB (control antagonist for CHOK1/TRPM8 cells). Growth media was removed from the cell plates (20 ul) and 20 ul of the Replacement Buffer was added followed by addition of 25 ul of diluted dye. All three steps were performed using a Plate Washer BioTek 407. The plates were then incubated for 30′ at RT.
After incubation, both the cell and compound plates were brought to the FLIPR and 20 ul of the diluted compounds/antagonist/bk were transferred to the cell plates by the FLIPR. Plates were then incubated for 30′ at room temperature. After 30′ incubation, plates were returned to the FLIPR and 20 ul of 4.5× Cinnamaldehyde was added to the cell plates. During the compound addition as well as agonist addition, fluorescence readings were taken simultaneously from all 384 wells of the cell plate every 1.5 seconds. Five readings were taken to establish a stable baseline, then 20 ul of sample was rapidly (30 ul/sec) and simultaneously added to each well of the cell plate. The fluorescence was continuously monitored before, during and after sample/agonist addition for a total elapsed time of 100 seconds (compound addition) and 120 seconds (agonist addition). Responses (increase in peak fluorescence) in each well following agonist addition was determined. The initial fluorescence reading from each well, prior to ligand stimulation, was used a zero baseline value for the data from that well.

Chain of hTRPA1 (O75762 whole entry): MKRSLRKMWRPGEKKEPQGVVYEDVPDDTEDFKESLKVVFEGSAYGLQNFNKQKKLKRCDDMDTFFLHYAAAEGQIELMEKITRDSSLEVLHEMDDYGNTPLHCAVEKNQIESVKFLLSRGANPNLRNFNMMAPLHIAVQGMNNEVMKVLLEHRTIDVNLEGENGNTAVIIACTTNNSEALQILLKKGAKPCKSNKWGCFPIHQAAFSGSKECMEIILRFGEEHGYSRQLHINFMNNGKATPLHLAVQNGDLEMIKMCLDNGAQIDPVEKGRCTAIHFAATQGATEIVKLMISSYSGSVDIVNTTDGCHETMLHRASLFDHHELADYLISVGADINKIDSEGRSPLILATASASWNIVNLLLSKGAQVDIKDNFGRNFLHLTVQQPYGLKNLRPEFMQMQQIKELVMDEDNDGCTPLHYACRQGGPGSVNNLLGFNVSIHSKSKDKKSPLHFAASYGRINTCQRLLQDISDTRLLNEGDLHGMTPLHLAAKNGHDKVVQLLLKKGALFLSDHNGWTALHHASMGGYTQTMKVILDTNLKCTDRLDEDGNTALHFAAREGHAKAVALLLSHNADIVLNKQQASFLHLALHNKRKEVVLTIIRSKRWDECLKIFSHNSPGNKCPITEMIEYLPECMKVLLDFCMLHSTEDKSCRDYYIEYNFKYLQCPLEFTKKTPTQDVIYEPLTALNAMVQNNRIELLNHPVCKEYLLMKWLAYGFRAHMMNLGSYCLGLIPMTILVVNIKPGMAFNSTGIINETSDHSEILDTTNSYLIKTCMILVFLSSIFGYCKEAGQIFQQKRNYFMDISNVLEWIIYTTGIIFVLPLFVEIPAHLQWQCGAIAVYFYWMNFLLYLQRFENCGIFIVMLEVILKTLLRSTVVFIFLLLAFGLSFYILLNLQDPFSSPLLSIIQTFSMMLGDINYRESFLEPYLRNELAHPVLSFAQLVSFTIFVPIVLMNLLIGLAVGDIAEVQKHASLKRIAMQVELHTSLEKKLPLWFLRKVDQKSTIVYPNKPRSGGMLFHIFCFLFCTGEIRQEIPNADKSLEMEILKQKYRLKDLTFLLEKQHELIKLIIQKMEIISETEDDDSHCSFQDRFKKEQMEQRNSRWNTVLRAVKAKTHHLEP

Row | SMILES | IC50
1 | CC(C)[C@H](C(=O)NCc1cccc(-c2ccc(C(F)(F)F)cc2)c1)N(C)S(=O)(=O)c1ccc(F)cc1 [Example 6, (R)-2-[(4-Fluoro-benzenesulfonyl)-methyl-amino]-3-methyl-N-(4′-trifluoromethyl-biphenyl-3-ylmethyl)-butyramide] | 1.11 µM
2 | C[C@@H](C(=O)NCc1cccc(-c2ccc(C(F)(F)F)cc2)c1)N(C)S(=O)(=O)c1ccc(F)cc1 [Example 2, (S)-2-[(4-Fluoro-benzenesulfonyl)-methyl-amino]-N-(4′-trifluoromethyl-biphenyl-3-ylmethyl)-propionamide] | 0.035 µM
3 | COc1cc(CNC(=O)CN(C(C)C)S(=O)(=O)c2ccc(F)cc2)cc(-c2ccc(C(F)(F)F)cc2)c1 [Example 45, 2-[(4-Fluoro-benzenesulfonyl)-isopropyl-amino]-N-(5-methoxy-4′-trifluoromethyl-biphenyl-3-ylmethyl)-acetamide] | 0.048 µM
4 | CC(C)N(CC(=O)NCc1cc(-c2ccc(C(F)(F)F)nc2)ncn1)S(=O)(=O)c1ccc(Cl)s1 [Example 76, 2-[(5-Chloro-thiophene-2-sulfonyl)-isopropyl-amino]-N-[6-(6-trifluoromethyl-pyridin-3-yl)-pyrimidin-4-ylmethyl]-acetamide] | 0.02 µM
5 | O=C(CN(CCO)S(=O)(=O)c1ccc(F)cc1)NCc1cccc(-c2ccc(C(F)(F)F)cc2)c1 [Example 19, 2-[(4-Fluoro-benzenesulfonyl)-(2-hydroxy-ethyl)-amino]-N-(4′-trifluoromethyl-biphenyl-3-ylmethyl)-acetamide] | 0.098 µM
6 | O=C(CN(CC(F)(F)F)S(=O)(=O)c1ccc(F)cc1)NCc1cccc(-c2ccc(C(F)(F)F)cc2)c1 [Example 13, 2-[(4-fluoro-benzenesulfonyl)-(2,2,2-trifluoro-ethyl)-amino]-N-(4′-trifluoromethyl-biphenyl-3-ylmethyl)-acetamide] | 0.26 µM
7 | CC(C)N(CC(=O)NCc1ccc(-c2ccc(C(F)(F)F)cc2)cc1)S(=O)(=O)c1ccc(F)cc1 [Example 33, 2-[(4-Fluoro-benzenesulfonyl)-isopropyl-amino]-N-(4′-trifluoromethyl-biphenyl-4-ylmethyl)-acetamide] | 2.21 µM
8 | CCN(CC(=O)NCc1cc(-c2ccc(C(F)(F)F)cc2)ccc1F)S(=O)(=O)c1ccc(F)cc1 [Example 16, 2-[Ethyl-(4-fluoro-benzenesulfonyl)-amino]-N-(4-fluoro-4′-trifluoromethyl-biphenyl-3-ylmethyl)-acetamide] | 0.024 µM
9 | CC(C)N(CC(=O)NCc1cccc(-c2ccc(C(F)(F)F)cc2)c1)S(=O)(=O)c1ccc(F)cc1 [Example 39, 2-[(4-Fluoro-benzenesulfonyl)-isopropyl-amino]-N-(4′-trifluoromethyl-biphenyl-3-ylmethyl)-acetamide] | 0.051 µM
10 | CC(C)N(CC(=O)NCc1cc(-c2ccc(C(F)(F)F)cc2)ncn1)S(=O)(=O)c1cnccn1 [Example 67, 2-[Isopropyl-(pyrazine-2-sulfonyl)-amino]-N-[6-(4-trifluoromethyl-phenyl)-pyrimidin-4-ylmethyl]-acetamide] | 0.38 µM
11 | CC(C)N(CC(=O)NCc1cccc(-c2ccc(C(F)(F)F)cn2)c1)S(=O)(=O)c1ccc(F)cc1 [Example 40, 2-[(4-Fluoro-benzenesulfonyl)-isopropyl-amino]-N-[3-(5-trifluoromethyl-pyridin-2-yl)-benzyl]-acetamide] | 0.067 µM
12 | O=C(CN(C1COC1)S(=O)(=O)c1ccc(F)cc1)NCc1cccc(-c2ccc(C(F)(F)F)cc2)c1 [Example 60, 2-[(4-Fluoro-benzenesulfonyl)-oxetan-3-yl-amino]-N-(4′-trifluoromethyl-biphenyl-3-ylmethyl)-acetamide] | 0.2 µM
13 | COc1cc(CNC(=O)CN(C)S(=O)(=O)c2ccc(F)cc2)cc(-c2ccc(C(F)(F)F)cc2)c1 [Example 43, 2-[(4-Fluoro-benzenesulfonyl)-methyl-amino]-N-(5-methoxy-4′-trifluoromethyl-biphenyl-3-ylmethyl)-acetamide] | 0.38 µM
14 | C[C@H](C(=O)NCc1cccc(-c2ccc(C(F)(F)F)cc2)c1)N(C)S(=O)(=O)c1ccc(F)cc1 [Example 4, (R)-2-[(4-Fluoro-benzenesulfonyl)-methyl-amino]-N-(4′-trifluoromethyl-biphenyl-3-ylmethyl)-propionamide] | 1.12 µM
15 | O=C(CN(CCO)S(=O)(=O)c1ccc(F)cc1)NCc1cc(-c2ccc(C(F)(F)F)cc2)ncn1 [Example 30, 2-[(4-fluoro-benzenesulfonyl)-(2-hydroxy-ethyl)-amino]-N-[6-(4-trifluoromethyl-phenyl)-pyrimidin-4-ylmethyl]acetamide] | 0.22 µM

Continued by falling IC50, values first:

Row | IC50 | SMILES
16 | 4.81 µM | CCN(CC(=O)NCc1ccc(-c2cccc(C(F)(F)F)c2)cc1)S(=O)(=O)c1ccc(F)cc1 [Example 18, 2-[Ethyl-(4-fluoro-benzenesulfonyl)-amino]-N-(3′-trifluoromethyl-biphenyl-4-ylmethyl)-acetamide]
17 | 1.03 µM | O=C(NCc1cccc(-c2ccc(C(F)(F)F)cc2)c1)C(NS(=O)(=O)c1ccc(F)cc1)C1CC1 (stereo not shown) [Example 24, 2-cyclopropyl-2-(4-fluoro-benzenesulfonylamino)-N-(4′-trifluoromethyl-biphenyl-3-ylmethyl)-acetamide]
18 | 0.47 µM | COCCN(CC(=O)NCc1cc(-c2ccc(C(F)(F)F)cc2)ncn1)S(=O)(=O)c1ccc(F)cc1 [Example 29, 2-[(4-Fluoro-benzenesulfonyl)-(2-methoxy-ethyl)-amino]-N-[6-(4-trifluoromethyl-phenyl)-pyrimidin-4-ylmethyl]-acetamide]
19 | 0.38 µM | CC(C)(C)N(CC(=O)NCc1cc(-c2ccc(C(F)(F)F)cc2)ncn1)S(=O)(=O)c1ccc(F)cc1 [Example 31, 2-[tert-Butyl-(4-fluoro-benzenesulfonyl)-amino]-N-[6-(4-trifluoromethyl-phenyl)-pyrimidin-4-ylmethyl]-acetamide]
20 | 0.34 µM | CN(CC(=O)NCc1cc(-c2ccc(C(F)(F)F)cc2)ncn1)S(=O)(=O)c1cccs1 [Example 26, 2-[methyl-(thiophene-2-sulfonyl)-amino]-N-[6-(4-trifluoromethyl-phenyl)-pyrimidin-4-ylmethyl]-acetamide]
21 | 0.099 µM | CC(C)N(CC(=O)NCc1ccnc(-c2ccc(C(F)(F)F)cc2)c1)S(=O)(=O)c1cccc(F)c1 [Example 59, 2-[(3-Fluoro-benzenesulfonyl)-isopropyl-amino]-N-[2-(4-trifluoromethyl-phenyl)-pyridin-4-ylmethyl]-acetamide]
22 | 0.087 µM | CCN(CC(=O)NCc1cc(OC)cc(-c2ccc(C(F)(F)F)cc2)c1)S(=O)(=O)c1ccc(F)cc1 [Example 44, 2-[Ethyl-(4-fluoro-benzenesulfonyl)-amino]-N-(5-methoxy-4′-trifluoromethyl-biphenyl-3-ylmethyl)-acetamide]
23 | 0.029 µM | CCN(CC(=O)NCc1cccc(-c2ccc(C(F)(F)F)cc2)c1)S(=O)(=O)c1ccc(F)cc1 [Example 23, 2-[Ethyl-(4-fluoro-benzenesulfonyl)-amino]-N-(4′-trifluoromethyl-biphenyl-3-ylmethyl)-acetamide]
24 | 0.025 µM | CC(C)N(CC(=O)NCc1cc(-c2ccc(C(F)(F)F)cc2)ncn1)S(=O)(=O)c1ccc(Cl)s1 [Example 75, 2-[(5-Chloro-thiophene-2-sulfonyl)-isopropyl-amino]-N-[6-(4-trifluoromethyl-phenyl)-pyrimidin-4-ylmethyl]-acetamide]
25 | 0.019 µM | CC(C)N(CC(=O)NCc1cc(-c2ccc(C(F)(F)F)cc2)ncn1)S(=O)(=O)c1ccc(F)c(F)c1 [Example 69, 2-[(3,4-Difluoro-benzenesulfonyl)-isopropyl-amino]-N-[6-(4-trifluoromethyl-phenyl)-pyrimidin-4-ylmethyl]-acetamide]
